The target in one series is T1, OCT1 (Homo sapiens, UniProt O15245).
T1 construct: expressed in transfected cells; host or cells: Flp-In T-Rex cell line (ThermoFisher), tetracycline-induced
T1 sequence (O15245 1-554): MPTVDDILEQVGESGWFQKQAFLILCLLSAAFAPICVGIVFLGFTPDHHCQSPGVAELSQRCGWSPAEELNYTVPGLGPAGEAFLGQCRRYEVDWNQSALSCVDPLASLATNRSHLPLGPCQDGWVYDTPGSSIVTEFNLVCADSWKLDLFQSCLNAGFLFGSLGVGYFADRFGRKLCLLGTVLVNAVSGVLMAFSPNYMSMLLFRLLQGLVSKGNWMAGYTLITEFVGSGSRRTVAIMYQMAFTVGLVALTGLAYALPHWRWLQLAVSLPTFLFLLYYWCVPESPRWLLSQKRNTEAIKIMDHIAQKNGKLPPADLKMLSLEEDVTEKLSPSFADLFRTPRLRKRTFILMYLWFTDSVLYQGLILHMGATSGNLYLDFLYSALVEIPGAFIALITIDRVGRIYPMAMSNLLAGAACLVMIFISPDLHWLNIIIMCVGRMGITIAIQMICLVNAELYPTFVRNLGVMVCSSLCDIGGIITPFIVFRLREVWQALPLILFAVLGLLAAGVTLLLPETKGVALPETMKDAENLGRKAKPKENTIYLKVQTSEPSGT
The series is described as follows: OCT1 uptake inhibition. In kind it is cell-based. Particulars: compared with 5-HT1A. How it is done:
Inducible cell lines stably expressing OCT1, OCT2, or PMAT were generated using the Flp-In T-Rex cell line (ThermoFisher) according to manufacturer recommendations. Cells were maintained in DMEM supplemented with 10% FBS, 100 μg/ml hygromycin B (GoldBio), and 10 μg/ml blasticidin (GoldBio). To measure uptake inhibition, cells were seeded into poly-L-lysine coated clear-bottom 384-well plates at a density of 25,000 cells per well in DMEM containing 10% FBS and 2 μg/ml of tetracycline (Sigma) to induce transporter expression. […] Cells were incubated with drug for 30 min at 37° C. Fluorescent substrate was then added to the cells. […] Cells were incubated with respective substrates for an hour at 37° C. OCT2 cells were read directly in a Victor NIVO plate reader using 495 nm excitation and 580 emission filter for 0.1 s. OCT1 and PMAT cells were washed in HBSS supplemented with 20 mM HEPES pH 7.4 before reading in a Victor NIVO plate reader using 435 nm excitation and 480 nm emission filter for 0.1 s.

Series [1] is described as follows: Mouse plasma protein binding. In kind it is in vitro ADME. As to conditions: for fraction unbound: mouse, plasma.
A further series addresses T2, 5-HT1A A365N (Homo sapiens, UniProt P08908, A365N).
T2 construct: expressed in transfected cells; host or cells: HEK293-T
T2 sequence (P08908 1-422 A365N): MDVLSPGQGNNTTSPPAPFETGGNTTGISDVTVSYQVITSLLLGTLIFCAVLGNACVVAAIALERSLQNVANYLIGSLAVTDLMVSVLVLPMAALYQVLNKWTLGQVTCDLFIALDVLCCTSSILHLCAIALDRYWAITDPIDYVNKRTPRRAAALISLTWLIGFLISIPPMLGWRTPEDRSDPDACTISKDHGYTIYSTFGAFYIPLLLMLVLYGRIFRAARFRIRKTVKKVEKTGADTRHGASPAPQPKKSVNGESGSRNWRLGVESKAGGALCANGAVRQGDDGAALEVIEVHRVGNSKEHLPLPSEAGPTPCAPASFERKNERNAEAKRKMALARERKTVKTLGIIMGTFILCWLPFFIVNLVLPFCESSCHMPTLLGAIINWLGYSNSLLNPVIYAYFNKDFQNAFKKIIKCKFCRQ
The series is described as follows: Gi1 BRET at mutant 5-HT1A A365N. In kind it is cell-based. Particulars: Gi1 BRET, 5-HT1A A365N^6.55. For orientation: In BRET a luciferase serves as donor, and the signal depends on an acceptor being close.

In the next series the target is T3, 5-HT2A V366N (Homo sapiens, UniProt P28223, V366N).
T3 construct: expressed in transfected cells; host or cells: HEK293-T
Briefly: Gq BRET at mutant 5-HT2A V366N. In kind it is cell-based. As to conditions: Gq BRET, 5-HT2A V366N^7.39.

A further series addresses T4, SERT (Homo sapiens, UniProt P31645).
T4 construct: expressed in transfected cells; host or cells: HEK293-T
The series is described as follows: Serotonin transporter (SERT) uptake inhibition. In kind it is cell-based. As to conditions: compared with 5-HT1A. Here is the method: The uptake inhibition assay was performed the following day. […] To each well, 30 μl of HBSS containing 20 mM HEPES, 0.1% BSA, and 0.01% ascorbic acid and 15 μl of 3× drug dilutions were added. Cells were then incubated at 37° C. for 45 min. A final concentration of 10 μM FFN246 (Aobious) (Henke et al. 2018) was added to each well, and cells were incubated for an additional hour at 37° C. […] Data was plotted as a function of drug concentration, normalized to % citalopram inhibition, and analyzed using “log(inhibitor) vs. response” in GraphPad Prism 8.0.

Another series relates to C57BL/6J mice. The series is described as follows: Head twitch response (HTR). In kind it is in vivo, mouse. As to conditions: s.c., presence or absence of 5-HT1A antagonist WAY-100635. How it is done:
The head-twitch response evaluation was performed by trained observers who were blinded to both drug and dose. Mice were habituated to the testing room 30 min. The body weight of each mouse was recorded. The HTR was defined as a rapid rotational movement of the head around the longitudinal axis of the animals' body. Mice were administered with vehicle or WAY100,635 (1 mg/kg or 2 mg/kg, sc). Fifteen minutes after the pretreatment injection mice were administered either 4F, 5-MeO-MET (0.1, 0.3, 1 or 3 mg/kg, sc) or 5-MeO-MET (0.3, 1, 3, and 10 mg/kg, sc) and placed in a novel observation cage. An overhead camera (GoPro HERO9 at a 120 Hz, San Mateo, CA, US) recorded their movements. Observers scored HTR from recorded footage for the first 10-min period.

From US20260034119A1, “5-METHOXY-N,N-[…][…], THEIR […], AND METHODS FOR TREATMENT OF NEUROLOGICAL, […], AND SUBSTANCE USE DISORDERS” (priority 2023, published 2026) come the findings set out here.

The EC50 is the concentration needed to bring the measured effect to its halfway point.

“Also recorded” adds a separate entry of the source. Read-outs that look alike come from different tables or passages of the source.

T3 sequence (P28223 whole entry V366N): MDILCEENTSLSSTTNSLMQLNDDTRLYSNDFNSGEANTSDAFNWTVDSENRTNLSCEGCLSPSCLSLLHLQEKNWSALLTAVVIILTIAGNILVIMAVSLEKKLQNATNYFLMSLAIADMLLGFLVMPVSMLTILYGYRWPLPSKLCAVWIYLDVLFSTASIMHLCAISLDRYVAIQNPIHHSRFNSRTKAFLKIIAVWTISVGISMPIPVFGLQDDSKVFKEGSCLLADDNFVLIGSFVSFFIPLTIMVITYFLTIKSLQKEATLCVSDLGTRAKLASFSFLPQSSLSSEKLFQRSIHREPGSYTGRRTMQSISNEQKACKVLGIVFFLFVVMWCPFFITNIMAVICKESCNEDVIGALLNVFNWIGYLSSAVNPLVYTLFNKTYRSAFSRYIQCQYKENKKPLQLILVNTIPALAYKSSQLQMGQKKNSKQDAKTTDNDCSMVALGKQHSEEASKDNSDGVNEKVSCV
T4 sequence (P31645 whole entry, species assumed): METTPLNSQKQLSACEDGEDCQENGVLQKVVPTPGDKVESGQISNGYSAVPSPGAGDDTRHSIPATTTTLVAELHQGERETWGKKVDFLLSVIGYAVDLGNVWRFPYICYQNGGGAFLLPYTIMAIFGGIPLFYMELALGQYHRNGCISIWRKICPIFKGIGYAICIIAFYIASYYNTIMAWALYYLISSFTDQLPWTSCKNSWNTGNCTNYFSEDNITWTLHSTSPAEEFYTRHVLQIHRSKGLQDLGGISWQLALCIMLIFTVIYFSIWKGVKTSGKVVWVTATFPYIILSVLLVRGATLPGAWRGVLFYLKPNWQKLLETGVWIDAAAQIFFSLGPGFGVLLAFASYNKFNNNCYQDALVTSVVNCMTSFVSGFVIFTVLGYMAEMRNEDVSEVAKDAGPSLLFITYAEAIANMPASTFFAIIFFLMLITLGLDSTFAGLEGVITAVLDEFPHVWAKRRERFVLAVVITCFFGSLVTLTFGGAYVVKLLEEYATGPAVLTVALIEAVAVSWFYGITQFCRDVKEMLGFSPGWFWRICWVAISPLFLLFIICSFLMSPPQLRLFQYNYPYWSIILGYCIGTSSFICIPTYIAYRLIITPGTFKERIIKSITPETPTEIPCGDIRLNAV

For the compound `COc1ccc2[nH]cc(CCN3CCCC3)c2c1F` [4-F, 5-MeO-PyrT, 4-Fluoro, 5-methoxypyrrolidinyl-tryptamine], the “activity at other neurotransmitter transporters (OCT1)” value at OCT1 is “substantially lower activity”. Moreover, the recovery in series [1] turned out to be 84.7%. In series [1] (4 h), the “% Compound remaining at 4 h” value was 105.6%. Also, the fraction unbound is 0.626 in series [1] (read-out: % Bound Mean (converted)); 0.626 in series [1] (read-out: % Unbound); 0.626 in series [1] (read-out: fu); 0.68 in series [1] (replicate R1, read-out: % Bound R1 (converted)); 0.573 in series [1] (replicate R2, read-out: % Bound R2 (converted)). The results for the pEC50 result at 5-HT1A A365N and at 5-HT2A V366N were “(8.29,” and “(6.8,”, respectively. The EC50 at 5-HT1A A365N (read-out: EC50) was determined as 5.08 nM; at 5-HT2A V366N (read-out: EC50), 157 nM. In addition, the “activity at the serotonin transporter” value at SERT was “substantially lower activity”. Besides, in the series on C57BL/6J mice, the “head-twitch response (HTR), measure of 5-HT2A-mediated hallucinogenic activity” value was “no preclinical signs of hallucinogenic effects; also recorded: did not produce notable HTR”.
